According to ChEMBL document CHEMBL4177572, “Recent advances in JAK3 inhibition: Isoform selectivity by covalent cysteine targeting” (Bioorg Med Chem Lett, 2017):
Each block holds one molecule with its values, some of them ahead of it.

Experiments:
[1] = molecular target: T1, Tyrosine-protein kinase JAK3 (Homo sapiens) (UniProt P52333); experiment: Binding affinity to JAK3 (unknown origin) assessed as dissociation half life
T1 sequence (whole entry): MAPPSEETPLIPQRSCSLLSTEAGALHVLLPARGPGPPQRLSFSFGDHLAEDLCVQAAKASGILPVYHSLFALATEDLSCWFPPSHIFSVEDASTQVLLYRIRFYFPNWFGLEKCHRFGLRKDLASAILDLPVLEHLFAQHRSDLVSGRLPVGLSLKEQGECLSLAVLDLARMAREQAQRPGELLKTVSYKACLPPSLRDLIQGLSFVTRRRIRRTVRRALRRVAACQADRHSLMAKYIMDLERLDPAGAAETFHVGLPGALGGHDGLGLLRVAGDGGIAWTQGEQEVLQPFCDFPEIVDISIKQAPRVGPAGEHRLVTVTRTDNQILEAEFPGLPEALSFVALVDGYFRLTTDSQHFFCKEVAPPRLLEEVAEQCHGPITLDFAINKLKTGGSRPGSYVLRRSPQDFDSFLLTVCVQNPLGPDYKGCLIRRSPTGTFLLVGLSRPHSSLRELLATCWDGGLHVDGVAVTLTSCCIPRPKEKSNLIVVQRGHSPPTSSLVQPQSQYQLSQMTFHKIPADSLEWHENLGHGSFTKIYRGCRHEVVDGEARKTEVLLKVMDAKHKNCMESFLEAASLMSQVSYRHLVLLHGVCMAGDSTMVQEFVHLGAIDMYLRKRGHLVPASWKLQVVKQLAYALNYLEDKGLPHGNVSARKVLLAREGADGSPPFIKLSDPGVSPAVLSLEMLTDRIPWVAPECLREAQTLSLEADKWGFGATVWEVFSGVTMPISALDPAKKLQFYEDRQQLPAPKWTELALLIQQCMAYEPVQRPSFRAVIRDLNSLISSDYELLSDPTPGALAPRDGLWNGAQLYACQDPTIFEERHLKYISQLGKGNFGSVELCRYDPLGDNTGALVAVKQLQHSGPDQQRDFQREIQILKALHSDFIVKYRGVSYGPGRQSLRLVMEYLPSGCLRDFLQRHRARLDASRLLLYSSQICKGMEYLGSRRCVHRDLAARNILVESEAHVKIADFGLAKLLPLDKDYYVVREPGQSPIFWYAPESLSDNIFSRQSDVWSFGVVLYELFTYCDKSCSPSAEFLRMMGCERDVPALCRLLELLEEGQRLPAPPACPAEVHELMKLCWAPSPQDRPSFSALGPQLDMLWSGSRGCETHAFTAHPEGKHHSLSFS

[2] = species on record: Homo sapiens; experiment: Selectivity ratio of IC50 for JAK1 (unknown origin) to IC50 for JAK3 (unknown origin)
[3] = species on record: Homo sapiens; experiment: Selectivity ratio of IC50 for JAK2 (unknown origin) to IC50 for JAK3 (unknown origin)
[4] = species on record: Homo sapiens; experiment: Selectivity ratio of IC50 for TYK2 (unknown origin) to IC50 for JAK3 (unknown origin)
[5] = molecular target: Tyrosine-protein kinase JAK1/JAK3 (Mus musculus, UniProt P52332+Q62137); experiment: Inhibition of JAK3/JAK1 in mouse CTLL-2 cells assessed as reduction in IL2-stimulated STAT5 phosphorylation; type: cell-based
[6] = molecular target: T2, JAK3/JAK1 (Homo sapiens, UniProt P23458+P52333); experiment: Inhibition of JAK1/JAK3 in human PBMC CD3+/CD8+ T cells assessed as reduction in IL7-stimulated STAT5 phosphorylation
T2 sequence (P23458 whole entry, one chain of several): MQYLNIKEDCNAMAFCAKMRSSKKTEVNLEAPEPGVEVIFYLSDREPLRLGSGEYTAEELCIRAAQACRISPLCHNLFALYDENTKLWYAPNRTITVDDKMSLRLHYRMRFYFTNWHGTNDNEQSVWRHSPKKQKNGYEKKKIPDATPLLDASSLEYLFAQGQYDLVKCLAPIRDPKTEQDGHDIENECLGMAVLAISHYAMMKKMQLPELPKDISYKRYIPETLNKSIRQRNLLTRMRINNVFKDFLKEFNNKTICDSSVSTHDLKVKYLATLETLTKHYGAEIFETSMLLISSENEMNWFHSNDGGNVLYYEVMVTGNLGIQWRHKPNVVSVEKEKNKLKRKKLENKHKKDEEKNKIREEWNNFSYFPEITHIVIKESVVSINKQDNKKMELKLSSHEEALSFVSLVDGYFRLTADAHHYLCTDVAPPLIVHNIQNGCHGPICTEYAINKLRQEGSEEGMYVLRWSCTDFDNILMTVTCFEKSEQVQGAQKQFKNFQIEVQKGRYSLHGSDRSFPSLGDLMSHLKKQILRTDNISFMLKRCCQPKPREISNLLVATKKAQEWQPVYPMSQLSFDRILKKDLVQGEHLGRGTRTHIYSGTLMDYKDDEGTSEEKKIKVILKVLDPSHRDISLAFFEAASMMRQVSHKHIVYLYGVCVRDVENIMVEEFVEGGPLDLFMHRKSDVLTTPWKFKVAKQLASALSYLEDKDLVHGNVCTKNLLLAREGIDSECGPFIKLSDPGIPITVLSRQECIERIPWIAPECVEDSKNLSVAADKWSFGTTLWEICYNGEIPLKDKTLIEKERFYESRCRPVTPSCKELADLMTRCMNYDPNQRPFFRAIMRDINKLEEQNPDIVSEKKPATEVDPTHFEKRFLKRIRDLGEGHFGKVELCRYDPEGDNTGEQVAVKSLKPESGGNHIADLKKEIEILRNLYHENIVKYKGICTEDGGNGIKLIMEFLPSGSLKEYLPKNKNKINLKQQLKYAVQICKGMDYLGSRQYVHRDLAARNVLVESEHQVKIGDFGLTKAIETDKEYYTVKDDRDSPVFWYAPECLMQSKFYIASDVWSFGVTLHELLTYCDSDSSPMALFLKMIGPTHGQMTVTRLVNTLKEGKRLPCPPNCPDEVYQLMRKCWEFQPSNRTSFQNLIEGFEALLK

[7] = molecular target: T2, JAK3/JAK1; experiment: Inhibition of JAK1/JAK3 in human whole blood CD3+/CD4+ T cells assessed as reduction in IL7-stimulated STAT5 phosphorylation
[8] = Half life in rat; type: ADME, organism-based; settings: in vivo
[9] = molecular target: Tyrosine-protein kinase JAK2 (Homo sapiens, UniProt O60674); experiment: Time-dependent inhibition of recombinant human N-terminal His-tagged JAK2 (826 to 1132 residues) expressed in sf21 cells using biotinylated peptide substrate after 1 hr by DELFIA
Sequence of Tyrosine-protein kinase JAK2 (O60674 whole entry, the tested form may be a part): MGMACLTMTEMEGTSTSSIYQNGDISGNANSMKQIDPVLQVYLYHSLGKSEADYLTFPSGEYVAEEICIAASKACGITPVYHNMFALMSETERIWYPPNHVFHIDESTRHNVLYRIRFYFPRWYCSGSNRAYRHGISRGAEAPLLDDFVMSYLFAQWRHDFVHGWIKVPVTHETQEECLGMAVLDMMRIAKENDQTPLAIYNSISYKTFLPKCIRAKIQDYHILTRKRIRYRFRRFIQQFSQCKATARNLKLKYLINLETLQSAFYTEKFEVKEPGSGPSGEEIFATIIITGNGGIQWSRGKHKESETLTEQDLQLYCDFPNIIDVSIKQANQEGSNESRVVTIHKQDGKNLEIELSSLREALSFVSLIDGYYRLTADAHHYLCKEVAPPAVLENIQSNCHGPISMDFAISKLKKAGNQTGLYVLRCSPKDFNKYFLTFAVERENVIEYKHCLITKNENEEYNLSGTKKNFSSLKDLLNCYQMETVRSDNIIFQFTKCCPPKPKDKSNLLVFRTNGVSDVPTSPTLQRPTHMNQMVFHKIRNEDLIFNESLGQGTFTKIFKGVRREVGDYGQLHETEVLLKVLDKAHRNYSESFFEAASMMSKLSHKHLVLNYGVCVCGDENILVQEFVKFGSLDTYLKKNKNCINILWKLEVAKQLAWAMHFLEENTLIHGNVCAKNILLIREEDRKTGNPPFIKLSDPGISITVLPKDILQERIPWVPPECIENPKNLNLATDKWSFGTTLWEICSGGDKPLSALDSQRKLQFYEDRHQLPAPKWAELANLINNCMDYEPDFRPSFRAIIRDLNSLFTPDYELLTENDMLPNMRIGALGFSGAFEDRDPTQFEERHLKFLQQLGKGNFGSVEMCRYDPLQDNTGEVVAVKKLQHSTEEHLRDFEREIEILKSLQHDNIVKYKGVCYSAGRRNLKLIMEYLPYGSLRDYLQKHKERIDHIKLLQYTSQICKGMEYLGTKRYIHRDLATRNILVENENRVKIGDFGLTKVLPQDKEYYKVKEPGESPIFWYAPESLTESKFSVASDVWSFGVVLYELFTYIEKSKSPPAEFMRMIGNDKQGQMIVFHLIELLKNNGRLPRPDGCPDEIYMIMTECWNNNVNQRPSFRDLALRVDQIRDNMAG

T1/2 [1]: 9 h
SMILES: CN(C)C(=O)/C(C#N)=C/c1ccc(Nc2cnc3[nH]cc(C(=O)C(C)(C)C)c3n2)cc1

Ratio IC50 [2]: 70 | Ratio IC50 [3]: 70 | Ratio IC50 [4]: 160
SMILES: c1nc(-c2cn(CC3CO3)nn2)c2cc[nH]c2n1 (centres undefined)

IC50 [5]: 70 nM | IC50 [6]: 280 nM | IC50 [7]: 5100 nM | half-life [8]: 0.3 h
SMILES: C=C(C)C(=O)Nc1cccc(-c2ncnc3[nH]cc(C(=O)OCC)c23)c1

IC50 [9]: 40 nM
SMILES: C=CC(=O)Nc1ccc2ncn(-c3cncc(NC(C)(C)C)n3)c2c1
